According to the supplement of paper PMC10307832:

Tests used:
Experiment in all cases: relative viability (nuclei count vs DMSO), 5 days (fraction); higher = more cells survive
[1] = compound: CN(C)CC1=CC(=CC=C1)N=C(C2=CC=CC=C2)C3=C(NC4=C3C=CC(=C4)C(=O)N(C)C)O + CC(C)C[C@H](NC(=O)[C@H](Cc1ccccc1)NC(=O)c1cnccn1)B(O)O [Bortezomib] (partner 0.002 µM)
Outline: (§1)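 Nuclei were stained with Hoechst during a one-step fixation (final 0.05% Triton X-100, 1% formaldehyde, 1 ug/ml Hoechst) carried out 5 days after dosing, then counted on 4× images. The cells, lung cancer lines in 1536-well plates, had been dosed by pin tool the day after seeding with one drug alone or a fixed anchor-drug dose plus five library-drug doses (not always all listed) in √10 steps. Relative viability is the nuclei count in treated wells divided by that in vehicle wells, and each value is the median of duplicate plates.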

[2] = compound: CN(C)CC1=CC(=CC=C1)N=C(C2=CC=CC=C2)C3=C(NC4=C3C=CC(=C4)C(=O)N(C)C)O + Cc1cc(Nc2cc(N3CCN(C)CC3)nc(Sc3ccc(NC(=O)C4CC4)cc3)n2)n[nH]1 [Tozasertib] (partner 0.1 µM)
Outline: as §1

[3] = compound: CN(C)CC1=CC(=CC=C1)N=C(C2=CC=CC=C2)C3=C(NC4=C3C=CC(=C4)C(=O)N(C)C)O + NC(=O)Nc1cc(-c2cccc(F)c2)sc1C(=O)N[C@H]1CCCNC1 [AZD7762] (partner 0.2 µM)
Outline: as §1

[4] = compound: CN(C)CC1=CC(=CC=C1)N=C(C2=CC=CC=C2)C3=C(NC4=C3C=CC(=C4)C(=O)N(C)C)O + Nc1ncn([C@H]2C[C@H](O)[C@@H](CO)O2)c(=O)n1 [Decitabine] (partner 2 µM)
Outline: as §1

Cell Line | relative viability ([1]; first compound 0.08 µM) | relative viability ([1]; first compound 0.253 µM) | relative viability ([1]; first compound 0.8 µM) | relative viability ([1]; first compound 2.53 µM) | relative viability ([1]; first compound 8 µM) | relative viability ([2]; first compound 0.08 µM) | relative viability ([2]; first compound 0.253 µM) | relative viability ([2]; first compound 0.8 µM) | relative viability ([2]; first compound 2.53 µM) | relative viability ([2]; first compound 8 µM) | relative viability ([3]; first compound 0.08 µM) | relative viability ([3]; first compound 0.253 µM) | relative viability ([3]; first compound 0.8 µM) | relative viability ([3]; first compound 2.53 µM) | relative viability ([3]; first compound 8 µM) | relative viability ([4]; first compound 0.08 µM) | relative viability ([4]; first compound 0.253 µM) | relative viability ([4]; first compound 0.8 µM) | relative viability ([4]; first compound 2.53 µM) | relative viability ([4]; first compound 8 µM)
LU99A | 1.13 | 1.21 | 1.15 | 1.09 | 0.911 | 0.312 | 0.3 | 0.384 | 0.22 | 0.198 | 0.45 | 0.335 | 0.337 | 0.24 | 0.299 | 0.925 | 0.79 | 0.885 | 0.927 | 0.673
HCC-15 | 0.984 | 0.956 | 1.08 | 1.03 | 1.12 | 0.424 | 0.387 | 0.39 | 0.365 | 0.453 | 1.44 | 1.2 | 1.24 | 1.4 | 1.31 | 0.707 | 0.636 | 0.784 | 0.63 | 0.617
HCC-827 | 1.08 | 1.03 | 1.08 | 1.08 | 1.05 | 0.435 | 0.457 | 0.376 | 0.408 | 0.396 | 0.232 | 0.26 | 0.156 | 0.229 | 0.182 | 0.334 | 0.349 | 0.305 | 0.367 | 0.341
NCI-H1734 | 0.954 | 0.868 | 0.92 | 0.815 | 0.78 | 0.259 | 0.262 | 0.227 | 0.268 | 0.247 | 0.644 | 0.532 | 0.506 | 0.56 | 0.526 | 0.526 | 0.491 | 0.455 | 0.564 | 0.493
NCI-H3122 | 0.984 | 0.99 | 1.06 | 0.959 | 0.98 | 0.416 | 0.359 | 0.448 | 0.383 | 0.438 | 1.01 | 0.967 | 1.03 | 1.02 | 1.07 | 0.508 | 0.387 | 0.454 | 0.504 | 0.46
PC-3 [JPC-3] | 0.856 | 0.826 | 0.759 | 0.886 | 0.866 | 0.877 | 0.855 | 0.854 | 0.814 | 0.922 | 0.872 | 0.938 | 0.753 | 0.806 | 1.02 | 0.761 | 0.763 | 0.804 | 0.837 | 0.842
NCI-H2087 | 0.656 | 0.785 | 0.986 | 0.816 | 1.03 | 0.242 | 0.233 | 0.265 | 0.27 | 0.233 | 1.13 | 1.28 | 1.36 | 1.45 | 1.33 | 0.385 | 0.368 | 0.267 | 0.266 | 0.236
201T | 1.13 | 1.15 | 1.08 | 1.06 | 0.994 | 0.937 | 0.97 | 0.857 | 0.904 | 0.809 | 0.675 | 0.6 | 0.627 | 0.607 | 0.525 | 0.836 | 0.874 | 0.849 | 0.855 | 0.738
NCI-H1993 | 1.04 | 1.11 | 0.748 | 1.22 | 1.36 | 0.623 | 0.525 | 0.524 | 0.584 | 0.646 | 0.59 | 0.705 |  | 0.937 | 0.877 | 0.643 | 0.55 |  | 0.617 | 0.687
NCI-H2085 | 1.07 | 0.953 | 0.993 | 1.01 | 1.07 | 0.862 | 0.901 | 0.793 | 0.781 | 0.829 | 1.03 | 0.978 | 0.995 | 0.988 | 0.969 | 0.521 | 0.571 | 0.622 | 0.547 | 0.646
BEN | 0.951 | 0.679 | 0.794 | 0.876 | 0.717 | 0.619 | 0.493 | 0.5 | 0.426 | 0.538 | 0.701 | 0.71 | 0.695 | 0.728 | 0.745 | 0.674 | 0.913 | 0.787 | 0.69 | 0.771
RERF-LC-KJ | 1.36 | 1.12 | 1.07 | 1.01 | 1.02 | 0.494 | 0.493 | 0.536 | 0.523 | 0.408 | 1.02 | 1 | 0.796 | 1.05 | 0.866 | 0.746 | 0.644 | 0.801 | 0.671 | 0.713
SK-MES-1 |  |  |  |  |  | 0.846 | 0.944 | 0.892 | 0.849 | 0.824 |  |  |  |  |  | 0.392 | 0.351 | 0.4 | 0.374 | 0.39
PC-14 | 0.989 | 0.839 | 0.89 | 0.767 | 1.06 | 0.564 | 0.604 | 0.618 | 0.531 | 0.649 | 0.392 | 0.395 | 0.377 | 0.387 | 0.411 | 0.254 | 0.214 | 0.213 | 0.236 | 0.25
NCI-H1563 | 0.868 | 0.921 | 0.729 | 0.755 | 0.737 |  |  |  |  |  |  |  |  |  |  |  |  |  |  | 
NCI-H2009 | 1.17 | 1.01 | 1.21 | 0.919 | 0.839 | 0.767 | 0.723 | 0.721 | 0.551 | 0.699 |  |  |  |  |  | 0.364 | 0.427 | 0.432 | 0.343 | 0.379
LK-2 |  |  |  |  |  | 0.162 | 0.165 | 0.171 | 0.188 | 0.198 | 0.457 | 0.416 | 0.426 | 0.493 | 0.341 | 0.306 | 0.375 | 0.276 | 0.328 | 0.286
NCI-H838 | 0.792 | 0.8 | 0.916 | 0.757 | 0.73 | 0.276 | 0.27 | 0.274 | 0.264 | 0.268 | 0.951 | 0.928 | 0.948 | 0.831 | 0.903 | 0.485 | 0.507 | 0.427 | 0.458 | 0.413
